US20250228239A1, “MOLECULES HAVING PESTICIDAL UTILITY, AND INTERMEDIATES, COMPOSITIONS, AND PROCESSES, RELATED THERETO” (priority 2024, published 2025)

How the values were obtained:
Type in all cases: in vivo
[1] = system: Beet Armyworm (Spodoptera exigua, LAPHEG); assay: Bioassays on Beet Armyworm (BAW), 128-well diet tray assay; settings: Spodoptera exigua; Beet Armyworm, Table ABC / ABC-DP rating; read-out: BAW rating
How it was run: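 Test molecule was dissolved in 90:10 acetone-water and applied at 50 μg/cm^2 onto artificial diet in eight wells, then dried. Second instar larvae, one to five per well, were added, and trays were kept vented at 25° C. with a 14:10 photoperiod for five to seven days before mortality was recorded.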

[2] = system: Cabbage Looper (Trichoplusia ni, TRIPNI); assay: Bioassays on Cabbage Looper (CL), 128-well diet tray assay; settings: Trichoplusia ni; Cabbage Looper, Table ABC / ABC-DP rating; read-out: CL rating
How it was run: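 Second-instar larvae (1–5 per well) placed on artificial diet surface-treated with 50 μg/cm^2 test molecule applied in 90:10 acetone-water and dried. Held at 25° C., 14:10 light-dark, for five to seven days. Percent mortality scored per well and averaged over eight wells.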

[3] = system: Yellow Fever Mosquito (Aedes aegypti, AEDSAE); settings: Yellow Fever Mosquito, Table ABC / ABC-DP rating
How it was run: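 Compounds from DMSO master plates (4000 ppm stock) diluted in 90:10 water/acetone, then dispensed into six replicate plates and infested with ~1-day-old Aedes aegypti larvae in liver-powder water. Held covered at room temperature for 3 days; each well scored for larval mortality and graded on a rating scale.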

Row | Structure (SMILES) | pest or weed control at 50 µg/cm2 [1] [%] | pest or weed control at 50 µg/cm2 [2] [%] | YFM rating [3]
1 | O=C(NCCNC(=O)C(F)(F)C(F)(F)F)c1cc(NC(=O)[C@H]2[C@H](c3cc(Cl)cc(Cl)c3)C2(Cl)Cl)ccc1Cl (relative stereo) [F2096, trans-2-Chloro-5-(2,2-dichloro-3-(3,5-dichlorophenyl)cyclopropane-1-carboxamido)-N-(2-(2,2,3,3,3-pentafluoropropanamido)ethyl)benzamide] | 50 to 100 | 50 to 100 | B (More than 0 – Less than 80)
2 | O=C(NCCCNC(=O)C(F)(F)C(F)(F)F)c1cc(NC(=O)[C@H]2[C@H](c3cc(Cl)cc(Cl)c3)C2(Cl)Cl)ccc1Cl (relative stereo) [F2097, trans-2-Chloro-5-(2,2-dichloro-3-(3,5-dichlorophenyl)cyclopropane-1-carboxamido)-N-(3-(2,2,3,3,3-pentafluoropropanamido)propyl)benzamide] | 50 to 100 | 50 to 100 | A (80–100)
3 | O=C(NCCCCNC(=O)C(F)(F)C(F)(F)F)c1cc(NC(=O)[C@H]2[C@H](c3cc(Cl)cc(Cl)c3)C2(Cl)Cl)ccc1Cl (relative stereo) [F2098, trans-2-Chloro-5-(2,2-dichloro-3-(3,5-dichlorophenyl)cyclopropane-1-carboxamido)-N-(4-(2,2,3,3,3-pentafluoropropanamido)butyl)benzamide] | 50 to 100 | 50 to 100 | B (More than 0 – Less than 80)
4 | O=C(NNc1ccccn1)c1cc(NC(=O)[C@H]2[C@H](c3cc(Cl)cc(Cl)c3)C2(Cl)Cl)ccc1Cl (relative stereo) [F2502, trans-2,2-dichloro-N-(4-chloro-3-(2-(pyridin-2-yl)hydrazine-1-carbonyl)phenyl)-3-(3,5-dichlorophenyl)cyclopropane-1-carboxamide] | 50 to 100 | 50 to 100 | A (80–100)
5 | O=C(NNc1ccc(Cl)cn1)c1cc(NC(=O)[C@H]2[C@H](c3cc(Cl)cc(Cl)c3)C2(Cl)Cl)ccc1Cl (relative stereo) [F2504, trans-2,2-Dichloro-N-(4-chloro-3-(2-(5-chloropyridin-2-yl)hydrazine-1-carbonyl)phenyl)-3-(3,5-dichlorophenyl)cyclopropane-1-carboxamide] | 50 to 100 | 50 to 100 | A (80–100)
6 | O=C(NNc1ncccc1Cl)c1cc(NC(=O)[C@H]2[C@H](c3cc(Cl)cc(Cl)c3)C2(Cl)Cl)ccc1Cl (relative stereo) [F2505, trans-2,2-Dichloro-N-(4-chloro-3-(2-(3-chloropyridin-2-yl)hydrazine-1-carbonyl)phenyl)-3-(3,5-dichlorophenyl)cyclopropane-1-carboxamide] | 50 to 100 | 50 to 100 | A (80–100)
7 | O=C(NNc1ccc(Cl)nn1)c1cc(NC(=O)[C@H]2[C@H](c3cc(Cl)cc(Cl)c3)C2(Cl)Cl)ccc1Cl (relative stereo) [F2506, trans-2,2-Dichloro-N-(4-chloro-3-(2-(6-chloropyridazin-3-yl)hydrazine-1-carbonyl)phenyl)-3-(3,5-dichlorophenyl)cyclopropane-1-carboxamide] | 50 to 100 | 50 to 100 | A (80–100)
8 | CN(NC(=O)c1cc(NC(=O)[C@H]2[C@H](c3cc(Cl)cc(Cl)c3)C2(Cl)Cl)ccc1Cl)c1cc(C(F)(F)F)ccn1 (relative stereo) [F2507, trans-2,2-Dichloro-N-(4-chloro-3-(2-methyl-2-(4-(trifluoromethyl)pyridin-2-yl)hydrazine-1-carbonyl)phenyl)-3-(3,5-dichlorophenyl)cyclopropane-1-carboxamide] | 50 to 100 | 50 to 100 | A (80–100)
9 | O=C(NNc1ncccn1)c1cc(NC(=O)[C@H]2[C@H](c3cc(Cl)cc(Cl)c3)C2(Cl)Cl)ccc1Cl (relative stereo) [F2508, trans-2,2-Dichloro-N-(4-chloro-3-(2-(pyrimidin-2-yl)hydrazine-1-carbonyl)phenyl)-3-(3,5-dichlorophenyl)cyclopropane-1-carboxamide] | 50 to 100 | 50 to 100 | A (80–100)
10 | O=C(NNc1ccncn1)c1cc(NC(=O)[C@H]2[C@H](c3cc(Cl)cc(Cl)c3)C2(Cl)Cl)ccc1Cl (relative stereo) [F2509, trans-2,2-Dichloro-N-(4-chloro-3-(2-(pyrimidin-4-yl)hydrazine-1-carbonyl)phenyl)-3-(3,5-dichlorophenyl)cyclopropane-1-carboxamide] | 50 to 100 | 50 to 100 | A (80–100)
11 | CC(=O)NNC(=O)c1cc(NC(=O)[C@H]2[C@H](c3cc(Cl)cc(Cl)c3)C2(Cl)Cl)ccc1Cl (relative stereo) [F2514, trans-N-(3-(2-acetylhydrazine-1-carbonyl)-4-chlorophenyl)-2,2-dichloro-3-(3,5-dichlorophenyl)cyclopropane-1-carboxamide] | 50 to 100 | 50 to 100 | A (80–100)
12 | O=C(NNC(=O)C(F)(F)F)c1cc(NC(=O)[C@H]2[C@H](c3cc(Cl)cc(Cl)c3)C2(Cl)Cl)ccc1Cl (relative stereo) [F2515, trans-2,2-Dichloro-N-(4-chloro-3-(2-(2,2,2-trifluoroacetyl)hydrazine-1-carbonyl)phenyl)-3-(3,5-dichlorophenyl)cyclopropane-1-carboxamide] | 50 to 100 | 50 to 100 | A (80–100)
13 | N#CC1(C(=O)NNC(=O)c2cc(NC(=O)[C@H]3[C@H](c4cc(Cl)cc(Cl)c4)C3(Cl)Cl)ccc2Cl)CC1 (relative stereo) [F2518, trans-2,2-Dichloro-N-(4-chloro-3-(2-(1-cyanocyclopropane-1-carbonyl)hydrazine-1-carbonyl)phenyl)-3-(3,5-dichlorophenyl)cyclopropane-1-carboxamide] | 50 to 100 | 50 to 100 | A (80–100)
14 | O=C(NNC(=O)c1cc(NC(=O)[C@H]2[C@H](c3cc(Cl)cc(Cl)c3)C2(Cl)Cl)ccc1Cl)c1ccccc1 (relative stereo) [F2519, trans-N-(3-(2-Benzoylhydrazine-1-carbonyl)-4-chlorophenyl)-2,2-dichloro-3-(3,5-dichlorophenyl)cyclopropane-1-carboxamide] | 50 to 100 | 50 to 100 | A (80–100)
15 | CN(NC(=O)c1cc(NC(=O)[C@H]2[C@H](c3cc(Cl)cc(Cl)c3)C2(Cl)Cl)ccc1Cl)C(=O)OC(C)(C)C (relative stereo) [F2520, trans-tert-Butyl 2-(2-chloro-5-(2,2-dichloro-3-(3,5-dichlorophenyl)cyclopropane-1-carboxamido)benzoyl)-1-methylhydrazine-1-carboxylate] | 50 to 100 | 50 to 100 | A (80–100)
16 | CNNC(=O)c1cc(NC(=O)[C@H]2[C@H](c3cc(Cl)cc(Cl)c3)C2(Cl)Cl)ccc1Cl.Cl (relative stereo) [F2521, trans-2,2-Dichloro-N-(4-chloro-3-(2-methylhydrazine-1-carbonyl)phenyl)-3-(3,5-dichlorophenyl)cyclopropane-1-carboxamide hydrochloride] | 50 to 100 | 50 to 100 | A (80–100)
17 | CC(=O)N(C)NC(=O)c1cc(NC(=O)[C@H]2[C@H](c3cc(Cl)cc(Cl)c3)C2(Cl)Cl)ccc1Cl (relative stereo) [F2522, trans-N-(3-(2-Acetyl-2-methylhydrazine-1-carbonyl)-4-chlorophenyl)-2,2-dichloro-3-(3,5-dichlorophenyl)cyclopropane-1-carboxamide] | 50 to 100 | 50 to 100 | A (80–100)
18 | CN(NC(=O)c1cc(NC(=O)[C@H]2[C@H](c3cc(Cl)cc(Cl)c3)C2(Cl)Cl)ccc1Cl)C(=O)CC1CC1 (relative stereo) [F2524, trans-2,2-Dichloro-N-(4-chloro-3-(2-(2-cyclopropylacetyl)-2-methylhydrazine-1-carbonyl)phenyl)-3-(3,5-dichlorophenyl)cyclopropane-1-carboxamide] | 50 to 100 | 50 to 100 | A (80–100)
19 | CN(NC(=O)c1cc(NC(=O)[C@H]2[C@H](c3cc(Cl)cc(Cl)c3)C2(Cl)Cl)ccc1Cl)C(=O)C1(C#N)CC1 (relative stereo) [F2525, trans-2,2-Dichloro-N-(4-chloro-3-(2-(1-cyanocyclopropane-1-carbonyl)-2-methylhydrazine-1-carbonyl)phenyl)-3-(3,5-dichlorophenyl)cyclopropane-1-carboxamide] | 50 to 100 | 50 to 100 | A (80–100)
20 | CN(C)CC(=O)NNC(=O)c1cc(NC(=O)[C@H]2[C@H](c3cc(Cl)cc(Cl)c3)C2(Cl)Cl)ccc1Cl (relative stereo) [F2530, trans-2,2-Dichloro-N-(4-chloro-3-(2-(dimethylglycyl)hydrazine-1-carbonyl)phenyl)-3-(3,5-dichlorophenyl)cyclopropane-1-carboxamide] | 50 to 100 | 50 to 100 | A (80–100)
